Experimental data published in US4537956A, “Antibiotics X-14889 A, C and D” (Hoffmann-La Roche Inc., priority 1983, dated 1985).
≈ marks a conversion by molar mass, not a printed value.

Experiments:
Test in all cases: MIC in vitro, agar diffusion well method
Format in all cases: cell-based
[1] = tested on: Bacillus megaterium ATCC 8011; details: Bacillus megaterium ATCC 8011, agar diffusion well method
Source text: (§1) Minimal inhibitory concentration (mcg/ml)
(§2) *As determined by an agar diffusion well method.

[2] = tested on: Bacillus sp. E ATCC 27359; details: Bacillus sp. E ATCC 27359, agar diffusion well method
Source text: as §1, §2

[3] = tested on: Bacillus sp. TA ATCC 27860; details: Bacillus sp. TA ATCC 27860, agar diffusion well method
Source text: as §1, §2

[4] = tested on: Bacillus subtilis ATCC 558; details: Bacillus subtilis ATCC 558, agar diffusion well method
Source text: as §1, §2

[5] = tested on: Candida albicans NRRL 477; details: Candida albicans NRRL 477, agar diffusion well method
Source text: as §1, §2

[6] = tested on: Mycobacterium phlei ATCC 355; details: Mycobacterium phlei ATCC 355, agar diffusion well method
Source text: as §1, §2

[7] = tested on: Paecilomyces varioti ATCC 28820; details: Paecilomyces varioti ATCC 28820, agar diffusion well method
Source text: as §1, §2

[8] = tested on: Penicillium digitatum ATCC 26821; details: Penicillium digitatum ATCC 26821, agar diffusion well method
Source text: as §1, §2

[9] = tested on: Saccharomyces cerevisiae ATCC 4226; details: Saccharomyces cerevisiae ATCC 4226, agar diffusion well method
Source text: as §1, §2

[10] = tested on: Staphylococcus aureus ATCC 6538P
Source text: as §1, §2

[11] = tested on: Streptococcus faecium ATCC 8043; details: Streptococcus faecium ATCC 8043, agar diffusion well method
Source text: as §1, §2

[12] = tested on: Streptomyces cellulosae ATCC 3313; details: Streptomyces cellulosae ATCC 3313, agar diffusion well method
Source text: as §1, §2

CC[C@H](C(=O)[C@@H](C)[C@@H](O)[C@H](C)[C@H]1O[C@@](O)(CC)[C@@H](C)C[C@@H]1C)[C@H]1O[C@](C)(C23OC(C)C(CC)(CC2C)O3)C[C@@H]1C (stereo partly drawn) [Antibiotic X-14889D] was tested, and the Minimal inhibitory concentration [1] was 1000 µg/mL (≈ 1760 µM), the Minimal inhibitory concentration [2] was 7.9 µg/mL (≈ 13.9 µM) and the Minimal inhibitory concentration [3] was 1000 µg/mL (≈ 1760 µM). The Minimal inhibitory concentration [4] was 1000 µg/mL (≈ 1760 µM), the Minimal inhibitory concentration [5] was 1000 µg/mL (≈ 1760 µM) and the Minimal inhibitory concentration [6] was 1000 µg/mL (≈ 1760 µM). It also gave a Minimal inhibitory concentration [7] of 1000 µg/mL (≈ 1760 µM), a Minimal inhibitory concentration [8] of 1000 µg/mL (≈ 1760 µM) and a Minimal inhibitory concentration [9] of 1000 µg/mL (≈ 1760 µM). The Minimal inhibitory concentration [10] was 125 µg/mL (≈ 221 µM), the Minimal inhibitory concentration [11] was 125 µg/mL (≈ 221 µM) and the Minimal inhibitory concentration [12] was 1000 µg/mL (≈ 1760 µM).
